Tested on: glioblastoma tumor sample collected from patient
Experiment: Oncoprint explant tumor culture model, drug sensitivity test with H&E, Ki67 and caspase staining
Format: cell-based, human
Details: glioma tumor samples in vitro, explant culture in artificial tumor microenvironment
Source text: According to one embodiment herein, Ocoprint® an explants tumor culture model to identify the anti-tumor effect of commonly used chemotherapeutics agents as well as Wharton's jelly derived mesenchymal stem cells on gliomas samples. In the laboratory, a tumor microenvironment similar to the body or physiological environment is created artificially in a dish. The tumor sample collected from patient is placed in this micro-environment in dish. Different anticancer agents including the mesenchymal stem cells derived from umbilical cord are applied on the tumor in the micro-environment. This mimics the application of these anti-cancer agents against the tumor when the tumor is in the human body. Simultaneously a control sample is maintained without any treatment or application of anti-cancer agents. After a specific treatment time or incubation the tumor samples are collected from the microenvironment and are subjected to a set of laboratory tests. […] The tests also reveal that the anti-cancer agents are able to kill tumor cells, reduce the number of tumor cells or limit the growth of tumor cells or the anti-cancer agent is converting the aggressively growing tumor cells to a programmed cell death mode.
The tests which are applied for testing effect of anti-cancer agents on the tumor are 1) Hematoxylin and eosin staining (H & E staining), 2) Ki67 is staining and 3) Caspase staining.
The Ki67 staining indicates the growth pattern of tumor cells.
According to one embodiment herein, Ocoprint® an explants tumor culture model to identify the anti-tumor effect of commonly used chemotherapeutics agents as well as Wharton's jelly derived mesenchymal stem cells on glioma's samples. In the laboratory, a tumor microenvironment similar to the body or physiological environment is created artificially in a dish. The tumor sample collected from the patient is placed in this micro-environment in dish. Different anticancer agents including the mesenchymal stem cells derived from umbilical cord are applied on the tumor in the micro-environment. […]

Row | Oncoprint sensitivity report: response of glioma samples (responders / non-responders) | Compound
1 | have not responded | CNC(=O)c1cc(Oc2ccc(NC(=O)Nc3ccc(Cl)c(C(F)(F)F)c3)cc2)ccn1 [sorafenib]
2 | responded | O=C1CCC(N2C(=O)c3ccccc3C2=O)C(=O)N1 (stereo not drawn) [Thalidomide]
3 | responded | Avastin: anti-cancer agent applied to the glioblastoma tumor
